From US10919885B2, “Compounds and uses thereof” (Yumanity Therapeutics, Inc., priority 2018, dated 2021) come the findings set out here.

One experiment concerns the target human SCD5 (Homo sapiens (Human), UniProt Q86SK9). Kind of experiment: Yeast growth assay, strain expressing human SCD5 as the sole desaturase (reduced growth as surrogate for SCD inhibition). The class given is cell-based. The note with it: yeast with OLE1 deleted expressing human SCD5 from a plasmid; growth read as OD600 after 40 h at 30° C.; top drug concentration 33.3 μM. A digest of the protocol: (§1)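 Human SCD1 or SCD5 expressed from a plasmid in OLE1-deleted yeast as the sole desaturase. Cells washed free of Tween and fatty acids, grown with compound in SD-Ura glucose medium 40 h at 30 °C; growth measured as OD600, reduced growth taken as SCD inhibition.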

The next experiment has as its target human SCD1 (Homo sapiens (Human), UniProt O00767). The experiment can be described thus: Yeast growth assay, strain expressing human SCD1 as the sole desaturase (reduced growth as surrogate for SCD inhibition). It is filed as cell-based. The conditions noted are these: yeast with OLE1 deleted expressing human SCD1 from a plasmid; growth read as OD600 after 40 h at 30° C.; top drug concentration 33.3 μM. An outline of the steps: as §1

Where only a bound is given, the exact number is not on record here.

As usually defined, the IC50 is the midpoint of a concentration-inhibition curve. A high value points to a need for much substance.

Sequence of human SCD1 (O00767 whole entry): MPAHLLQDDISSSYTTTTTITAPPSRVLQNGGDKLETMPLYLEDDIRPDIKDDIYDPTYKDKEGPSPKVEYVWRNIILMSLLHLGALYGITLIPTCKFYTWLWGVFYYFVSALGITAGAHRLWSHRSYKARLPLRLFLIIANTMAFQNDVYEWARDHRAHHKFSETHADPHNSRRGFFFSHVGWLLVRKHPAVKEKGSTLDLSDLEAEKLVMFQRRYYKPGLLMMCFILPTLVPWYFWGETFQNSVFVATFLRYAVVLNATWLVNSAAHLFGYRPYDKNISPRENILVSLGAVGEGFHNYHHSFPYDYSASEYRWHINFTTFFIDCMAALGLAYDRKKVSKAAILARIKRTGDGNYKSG
Sequence of human SCD5 (Q86SK9 whole entry): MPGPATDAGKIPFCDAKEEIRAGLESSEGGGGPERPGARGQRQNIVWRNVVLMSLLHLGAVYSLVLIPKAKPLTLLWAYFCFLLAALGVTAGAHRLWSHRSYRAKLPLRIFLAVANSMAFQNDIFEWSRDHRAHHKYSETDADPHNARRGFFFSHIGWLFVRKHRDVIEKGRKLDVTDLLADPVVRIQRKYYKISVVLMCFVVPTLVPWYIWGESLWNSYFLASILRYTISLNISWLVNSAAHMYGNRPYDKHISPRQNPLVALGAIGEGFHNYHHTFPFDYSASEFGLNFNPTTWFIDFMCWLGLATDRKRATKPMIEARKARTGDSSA

For the compound `CCOc1ccc(-c2cc(C(=O)N3CCC[C@H]3c3ccccc3)no2)cc1F` [Compound 443], the IC50 against human SCD5 and on human SCD1 was greater than 45 µM each time.

As for `O=C(Nc1cnn(Cc2ccccc2Cl)c1)c1cc(-c2cccc3cnn(C4COC4)c23)on1` [Compound 93], the IC50 against human SCD5 and on human SCD1 was greater than 45 µM throughout.

As for `CC(C)(C)OC(=O)n1cc(NC(=O)c2cc(-c3ccccc3)on2)cn1` [Compound 35], the figures for the half-inhibitory concentration (IC50) against human SCD5 and against human SCD1 were greater than 45 µM and 3.24 µM, respectively.

Regarding `Cn1nccc1C1CCCN1C(=O)c1cc(-c2ccc3c(c2)OCO3)on1` (centres unmarked) [Compound 417], the IC50 on human SCD5 and on human SCD1 was greater than 45 µM throughout.

For `O=C(c1cc(-c2cccnc2)on1)N1CC(c2ccccc2)C1` [Compound 234, (3-phenylazetidin-1-yl)(5-(pyridin-3-yl)isoxazol-3-yl)methanone, trifluoroacetic acid], the IC50 at human SCD5 turned out to be 5.08 µM; on human SCD1, 15.5 µM.

On to `O=C(c1cc(-c2ccccc2)on1)N1CCC(c2cccnc2)CC1` [Compound 322], for which the half-maximal inhibitory concentration (IC50) against human SCD5 and against human SCD1 was greater than 45 µM in each case.

As to `O=C(NC1CCN(Cc2ccccc2)CC1)c1cc(-c2ccco2)on1` [Compound 285], the IC50 against human SCD5 and on human SCD1 was greater than 45 µM throughout.

`O=C(c1cc(-c2ccc3c(c2)OCO3)on1)N1CCCC1c1ccccc1F` (centres unmarked) [Compound 366]: the IC50 against human SCD5 and against human SCD1 was greater than 45 µM in each case.

For the compound `O=C(Nc1cnn(CCc2ccccc2)c1)c1cc(-c2ccco2)on1` [Compound 24], the IC50 on human SCD5 and on human SCD1 was greater than 45 µM throughout.

Regarding `CC(C)(C)OC(=O)n1cc(NC(=O)c2cc(-c3ccco3)on2)cn1` [Compound 12], the IC50 at human SCD5 and against human SCD1 was greater than 45 µM in each case.

On to `Cc1ccncc1Cn1cc(NC(=O)c2cc(-c3ccccc3F)on2)cn1` [Compound 172], for which the IC50 at human SCD5 and at human SCD1 was greater than 45 µM each time.

For `O=C(Nc1cnn(Cc2ccccn2)c1)c1cc(-c2ccccc2)on1` [Compound 40], the IC50 at human SCD5 and against human SCD1 was greater than 45 µM throughout.

Consider `O=C(c1cc(-c2ccc3c(c2)OCO3)on1)N1C[C@@H](O)C[C@H]1c1ccccc1` [Compound 421], for which the IC50 at human SCD5 and on human SCD1 was greater than 45 µM each time.

With `O=C(c1cc(-c2ccc3c(c2)OCO3)on1)N1CCn2ccnc2C1` [Compound 269], the IC50 on human SCD5 and against human SCD1 was greater than 45 µM in each case.

Take `O=C(Nc1cn(Cc2ccccc2)nn1)c1cc(-c2ccccc2)on1` [Compound 44]: the concentration for half-maximal inhibition (IC50) against human SCD5 and against human SCD1 was greater than 45 µM in each case.

In the case of `N#Cc1ccccc1-c1cc(C(=O)Nc2cnn(Cc3ccccc3)c2)no1` [Compound 135], the IC50 against human SCD5 and at human SCD1 was greater than 45 µM throughout.

On to `O=C(c1cc(-c2ccc3c(c2)OCO3)on1)N1CCN(c2cccc(F)c2)CC1` [Compound 282], for which the IC50 against human SCD5 and on human SCD1 was greater than 45 µM in each case.

For `Nc1cc(C(=O)Nc2cnn(Cc3ccccc3)c2)no1` [Compound 192], the IC50 against human SCD5 and against human SCD1 was greater than 45 µM in each case.

`COc1ccc(C2CCCN2C(=O)c2cc(-c3ccc4c(c3)OCO4)on2)nc1` (centres unmarked) [Compound 145]: the IC50 against human SCD5 and against human SCD1 was greater than 45 µM in each case.

As to `O=C(c1cc(CC2CC2)on1)N1CCCC1c1ccccc1` (centres unmarked) [Compound 384], the figures for the IC50 against human SCD5 and against human SCD1 were greater than 45 µM and 30 µM, respectively.

`CCOC(=O)c1cc(-c2cc(C(=O)Nc3cnn(Cc4cccc(F)c4)c3)no2)on1` [Compound 155]: the IC50 at human SCD5 and on human SCD1 was greater than 45 µM in each case.

Consider `O=C(c1cc(-c2ccco2)on1)N1CC(Nc2ccccc2)C1` [Compound 210], for which the half-maximal inhibitory concentration (IC50) on human SCD5 and against human SCD1 was greater than 45 µM in each case.

Take `O=C(Nc1cnn(Cc2ccccc2)c1)c1cc(-c2c(F)cccc2F)on1` [Compound 195]: the IC50 against human SCD5 and at human SCD1 was greater than 45 µM throughout.

`N#Cc1nn(Cc2ccccc2)cc1NC(=O)c1cc(-c2ccccc2)on1` [Compound 68]: the IC50 against human SCD5 and at human SCD1 was greater than 45 µM in each case.

Regarding `Cn1cccc(-c2cc(C(=O)Nc3cnn(Cc4cccc(F)c4)c3)no2)c1=O` [Compound 89], the IC50 is greater than 45 µM against human SCD5 and 12 µM on human SCD1.

As for `COc1ccc(C2CCCN2C(=O)c2cc(-c3ccc4nc(N(C)C)oc4c3)on2)cc1` (centres unmarked) [Compound 399], the figures for the IC50 against human SCD5 and against human SCD1 were 2.89 µM and 15 µM, respectively.

For the compound `COc1cccc(N2CCN(C(=O)c3cc(-c4ccc5c(c4)OCO5)on3)CC2)c1` [Compound 271, (5-(benzo[d][1,3]dioxol-5-yl)isoxazol-3-yl)(4-(3-methoxyphenyl)piperazin-1-yl)methanone], the half-inhibitory concentration (IC50) on human SCD5 is 4.71 µM; against human SCD1 it was greater than 45 µM.

`CNC(=O)c1ccc(-c2cc(C(=O)N3CC(Cc4ccccc4)C3)no2)cc1` [Compound 230]: the IC50 against human SCD5 and against human SCD1 was greater than 45 µM each time.

`CC(C)(C)c1cc(C(=O)Nc2cnn(Cc3ccccc3)c2)no1` [Compound 118, N-(1-benzyl-1H-pyrazol-4-yl)-5-(tert-butyl)isoxazole-3-carboxamide]: the IC50 against human SCD5 amounted to 2.7 µM; against human SCD1 it was 0.15 µM.

Turning to `C[S+]([O-])CCC(c1ccccc1)n1cc(NC(=O)c2cc(-c3ccccc3)on2)cn1` (centres unmarked) [Compound 71], the IC50 against human SCD5 and at human SCD1 was greater than 45 µM each time.

With `Cc1nnc(-c2cc(C(=O)Nc3cnn(Cc4ccccc4)c3)no2)s1` [Compound 163], the IC50 against human SCD5 and against human SCD1 was greater than 45 µM throughout.

As for `O=C(Nc1cnnc(Oc2ccccc2)c1)c1cc(-c2ccccc2)on1` [Compound 311], the IC50 against human SCD5 and against human SCD1 was greater than 45 µM throughout.

In the case of `COc1ccc(-c2cc(C(=O)N3CC(c4ccccc4)C3)no2)nn1` [Compound 255, (5-(6-methoxypyridazin-3-yl)isoxazol-3-yl)(3-phenylazetidin-1-yl)methanone], the IC50 at human SCD5 was found to be 1.8 µM; against human SCD1 it was 23 µM.

With `Cc1nn(C)c2cc(-c3cc(C(=O)N4CCN(c5ccccc5)CC4)no3)ccc12` [Compound 278], the IC50 on human SCD5 and on human SCD1 was greater than 45 µM each time.

`O=C(c1cc(-c2ccccn2)on1)N(Cc1ccc(F)c(F)c1)c1cnn(Cc2ccc(F)c(F)c2)c1` [Compound 62, N-(3,4-difluorobenzyl)-N-(1-(3,4-difluorobenzyl)-1H-pyrazol-4-yl)-5-(pyridin-2-yl)isoxazole-3-carboxamide]: the IC50 on human SCD5 is 33.1 µM; at human SCD1 it was greater than 45 µM.

Take `O=C(c1cc(-c2ccc3c(c2)OCO3)on1)N1CCC1c1cccc(F)c1` (centres unmarked) [Compound 220, [5-(1,3-benzodioxol-5-yl)isoxazol-3-yl]-[2-(3-fluorophenyl)azetidin-1-yl]methanone]: the values for the IC50 at human SCD5 and at human SCD1 were 2.92 µM and greater than 45 µM, respectively.

As to `O=C(Nc1cnn(Cc2cccnc2)c1)c1cc(-c2ccccc2)on1` [Compound 39], the IC50 against human SCD5 and against human SCD1 was greater than 45 µM in each case.

With `Cn1ccc(-c2cc(C(=O)N3CCC[C@H]3c3ccccc3)no2)cc1=O` [Compound 428], the IC50 against human SCD5 is greater than 45 µM; on human SCD1 it was 29.4 µM.

Regarding `O=C(NC1CCN(c2ccccc2)CC1)c1cc(-c2ccco2)on1` [Compound 286], the IC50 against human SCD5 and on human SCD1 was greater than 45 µM throughout.

Turning to `O=C(Nc1cc(-c2ccco2)on1)c1cnn(Cc2ccc(Cl)c(Cl)c2)c1` [Compound 59], the half-inhibitory concentration (IC50) at human SCD5 and at human SCD1 was greater than 45 µM throughout.

For the compound `O=C(c1cc(-c2ccc3ncnn3c2)on1)N1CCC[C@H]1c1ccccc1` [Compound 441], the results for the IC50 at human SCD5 and on human SCD1 were greater than 45 µM and 32.4 µM, respectively.

Consider `O=C(Nc1cnn(Cc2ccc(F)c(F)c2)c1)c1cc(-c2ccccn2)on1` [Compound 61], for which the IC50 against human SCD5 is greater than 45 µM; on human SCD1 it was 25.5 µM.

Turning to `O=C(c1cc(-c2ccc3c(c2)OCO3)on1)N1COCC1c1ccccc1` (centres unmarked) [Compound 406], the half-maximal inhibitory concentration (IC50) against human SCD5 and on human SCD1 was greater than 45 µM in each case.

Turning to `CN1CCC2(CCN(C(=O)c3cc(-c4ccccc4)on3)C2)C1` (centres unmarked) [Compound 342], the IC50 on human SCD5 and at human SCD1 was greater than 45 µM throughout.

With `O=C(c1cc(-c2ccncn2)on1)N1CC(Cc2ccccc2)C1` [Compound 258, (3-benzylazetidin-1-yl)(5-(pyrimidin-4-yl)isoxazol-3-yl)methanone], the IC50 on human SCD5 was determined as 1 µM; on human SCD1, 2.5 µM.

As for `O=C(Nc1cnn(Cc2ncccc2C(F)(F)F)c1)c1cc(-c2ccccc2F)on1` [Compound 196], the IC50 at human SCD5 and at human SCD1 was greater than 45 µM throughout.

On to `CC(C)c1cc(C(=O)N2CCC(c3ccccc3)C2)no1` (centres unmarked) [Compound 349], for which the 50% inhibitory concentration (IC50) at human SCD5 and against human SCD1 was greater than 45 µM throughout.

As for `CC1(C(=O)Nc2ccccc2)CN(C(=O)c2cc(-c3ccccc3)on2)C1` [Compound 238], the IC50 on human SCD5 and against human SCD1 was greater than 45 µM throughout.

Take `Cc1cc(C2CCCN2C(=O)c2cc(-c3ccc4c(c3)OCO4)on2)no1` (centres unmarked) [Compound 442]: the IC50 at human SCD5 and at human SCD1 was greater than 45 µM each time.

Consider `O=C(c1cc(-c2ccccc2)on1)N1CC2(C1)CN(c1ccccc1)C2` [Compound 209], for which the IC50 against human SCD5 and against human SCD1 was greater than 45 µM in each case.

`Cc1nn(Cc2ccccc2)cc1NC(=O)c1cc(-c2ccccc2)on1` [Compound 66]: the IC50 against human SCD5 is greater than 45 µM; against human SCD1 it was 1.83 µM.

`O=C(c1cc(-c2cccnc2)on1)N1CCC[C@H]1c1ccccc1` [Compound 405]: the IC50 is greater than 45 µM against human SCD5 and 33.3 µM against human SCD1.
